The values that follow come from patent US6063766A, “Transport protein which effects the transport of cationic xenobiotics and/or pharmaceuticals, DNA sequences encoding it and their use” (priority 1994, dated 2000).

Series [1] deals with MPP uptake in hepatocytes. To be noted: cultured hepatocytes; cited from earlier work.
Series [2] deals with T1, OCT1 transport protein (Rattus norvegicus, UniProt Q63089).
T1 sequence (Q63089 1-556): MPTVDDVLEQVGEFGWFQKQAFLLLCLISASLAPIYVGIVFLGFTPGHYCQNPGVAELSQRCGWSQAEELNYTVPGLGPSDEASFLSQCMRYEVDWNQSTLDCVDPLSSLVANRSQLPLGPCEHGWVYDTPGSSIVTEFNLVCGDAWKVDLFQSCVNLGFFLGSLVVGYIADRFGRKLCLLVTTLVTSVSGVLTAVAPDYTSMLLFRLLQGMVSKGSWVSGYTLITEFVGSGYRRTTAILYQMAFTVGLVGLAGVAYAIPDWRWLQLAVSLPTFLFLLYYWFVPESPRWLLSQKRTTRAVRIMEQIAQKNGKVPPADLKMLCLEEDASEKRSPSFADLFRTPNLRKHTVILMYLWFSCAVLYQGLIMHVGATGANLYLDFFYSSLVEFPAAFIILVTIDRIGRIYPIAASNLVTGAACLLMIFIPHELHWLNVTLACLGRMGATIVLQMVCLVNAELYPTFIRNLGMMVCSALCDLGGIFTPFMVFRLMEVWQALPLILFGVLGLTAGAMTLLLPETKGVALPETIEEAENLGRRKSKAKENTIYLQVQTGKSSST
In words: Inhibition of ^14 C-TEA uptake in Xenopus laevis oocytes injected with OCT1 cRNA.

The target of series [3] is luminal uptake of TEA. To be noted: previous investigations, cited from earlier work.
Series [4] concerns the target basolateral membrane of rat proximal renal tubules. To be noted: microperfusion experiments; previous investigations; read-out: Ki for basolateral uptake of TEA into rat proximal renal tubules; cited from earlier work.
For series [5], the target named is T1, OCT1 transport protein. To be noted: xenopus oocytes expressing oct1.
The subject of series [6] is LLC-PK1 cells, luminal membrane. To be noted: read-out: Ki for transport of TEA across the luminal membrane, LLC-PK1 cells; cited from earlier work.
The target in series [7] is T1, OCT1 transport protein. The series can be described thus: cell-based.
Series [8] relates to LLC-PK1 cells, basolateral membrane. To be noted: estimated, read-out: Ki for transport of TEA across the basolateral membrane, LLC-PK1 cells; cited from earlier work.
The subject of series [9] is neuronal monoamine transport protein in synaptic vesicles. To be noted: cited from earlier work.
Series [10] concerns the target T1, OCT1 transport protein. To be noted: 8 ng OCT1 cRNA injected.
Setting [11] is: Ki for inhibition of OCT1-elicited ^14 C-TEA uptake.

Where two headings read alike, the source gives them in different places.

Consider `CC[n+]1c(C=C2C=C(C)N=C(c3ccccc3)N2C)ccc2ccccc21` [Cyanine 863, 1-ethyl-2([1,4-dimethyl-2-phenyl-6-pyrimidinylidene]methyl)quinoliniumchloride], for which the Ki – broadly, the dissociation constant of the complex between target and ligand, obtained from inhibition or displacement – was 0.1 µM in [1] and 0.00013 mM in series [2] (setting [11]).

For the molecule `C[N+](C)(C)C` [Tetramethylammonium], the Ki in [3] (read-out: Ki for luminal uptake of TEA) was 7e+07 nM; in series [4], 1400 µM. For the same molecule, the “inhibition of OCT1-elicited ^14 C-TEA uptake (in words)” value in series [2] is recorded as “inhibited”.

With `C[n+]1cccc(C(N)=O)c1` [N^1 -Methylnicotinamide], the Ki in series [3] (read-out: Ki for luminal uptake of TEA (printed in nM)) was 8.3e+06 nM; in [4], 540 µM; in series [2] (setting [11]), 1 ± 0.2 mM; in series [2] (Ki for inhibition of OCT1-elicited ^14 C-TEA uptake (mM, text)), around 1 mM. Also, the “inhibition by NMN of OCT1-induced ^14 C-TEA uptake (in words)” value in [2] is listed as “able to inhibit”. Besides, in series [2], the “inhibition of OCT1-elicited ^14 C-TEA uptake (in words)” value was “inhibited”.

In turn, `C[n+]1ccc(-c2ccccc2)cc1` [1-Methyl-4-phenylpyridinium] showed a Ki in series [5] of 13 ± 2 µM.

For `CNCCCN1c2ccccc2CCc2ccccc21` [Desipramine], in series [2], the “inhibition of OCT1-elicited ^14 C-TEA uptake (in words)” value was “inhibited”.

In series [5], `CC(C)C(c1ccccc1)C(O)CC[N+]1(C)CCCCC1` (centres unmarked) [Mepiperphenidol] had a Ki of 5.2 ± 0.3 µM.

In [5], `CCCCC[N+](CCCCC)(CCCCC)CCCCC` [Tetrapentylammonium] returned a Ki of 0.43 ± 0.09 µM.

With `COc1cc(C(O)CNC(C)C)ccc1O` (centres unmarked) [O-Methylisoprenaline], the Ki in series [1] was 78 µM; in [5], 43 ± 5 µM. The “inhibition of OCT1-elicited ^14 C-TEA uptake (in words)” value in series [2] (oocytes injected with OCT1 cRNA) is given as “inhibited”.

As for `CCN1C(=Cc2ccc3ccccc3[n+]2CC)C=Cc2ccccc21` [Decynium 22], the Ki in [1] was 0.23 µM; in series [6], 0.0056 µM; in [7], 0.4 µM; in series [5], 0.36 ± 0.08 µM; in series [8], above 0.1 µM.

Turning to `COC(=O)[C@H]1[C@H]2C[C@@H]3c4[nH]c5cc(OC)ccc5c4CCN3C[C@H]2C[C@@H](OC(=O)c2cc(OC)c(OC)c(OC)c2)[C@@H]1OC` [Reserpine], the “effect on OCT1-elicited transport” value in [2] (5 μM) is “no effect”. In series [9], the “inhibiting concentration, neuronal monoamine transport protein in synaptic vesicles” value is recorded as “sub-nanomolar”.

As for `C=C[C@H]1C[N@@]2CC[C@H]1C[C@H]2[C@H](O)c1ccnc2ccc(OC)cc12` [Quinine], the “inhibition of expressed ^3 H-MPP uptake (in words)” value in series [10] is listed as “inhibited”.
